Laboratory results as given in patent US10045983B2, “Heteroaryl pyridone and aza-pyrodine compounds” (Genentech, Inc., priority 2011, dated 2018).

Experiment: CD69 Whole Blood Assay (CD69 Hu Blood FACS)
Assay type: cell-based, human
Settings: Lymphocyte; human whole blood, anti-IgM activated B lymphocytes, FACS; IC70; Table 1; read-out: CD69 Hu Blood FACS IC70
Description: A CD69 Whole Blood Assay can be conducted on Formula I compounds to determine the ability of compounds to inhibit the production of CD69 by B lymphocytes in human whole blood activated by crosslinking surface IgM with goat F(ab′)2 anti-human IgM (Example 907). CD69 is a type II C-type lectin involved in lymphocyte migration and cytokine secretion. CD69 expression represents one of the earliest available indicators of leukocyte activation and its rapid induction occurs through transcriptional activation (Vazquez et al (2009) Jour. of Immunology Published Oct. 19, 2009, doi:10.4049/jimmunol.0900839). Concentration-dependent inhibition of antigen receptor stimulation by selective Btk inhibitors induces cell surface expression of the lymphocyte activation marker CD69 (Honigberg et al (2010) Proc. Natl. Acad. Sci. 107(29):13075-13080). Thus, CD69 inhibition by selective Btk inhibitors may be correlated with therapeutic efficacy of certain B-cell disorders.

Structure (SMILES)	IC70 [nM]
Cn1cc(-c2ccnc(N3CCn4c(cc5c4CCCC5)C3=O)c2CO)cc(Nc2ccc(N3CCN(CC(C)(C)O)CC3)cn2)c1=O [Example 120, 2-(4-(5-(5-(4-(2-Hydroxy-2-methylpropyl)piperazin-1-yl)pyridin-2-ylamino)-1-methyl-6-oxo-1,6-dihydropyridin-3-yl)-3-(hydroxymethyl)pyridin-2-yl)-3,4,6,7,8,9-hexahydropyrazino[1,2-a]indol-1(2H)-one]	283
Cn1cc(-c2ccnc(-n3ccn4c5c(cc4c3=O)CCCC5)c2CO)cc(Nc2ccc(N3CCN(C4COC4)CC3)cn2)c1=O [Example 121, 2-(3-(hydroxymethyl)-4-(1-methyl-5-(5-(4-(oxetan-3-yl)piperazin-1-yl)pyridine-2-ylamino)-6-oxo-1,6-dihydropyridin-3-yl)pyridin-2-yl)-6,7,8,9-tetrahydropyrazino[1,2-a]indol-1(2H)-one]	32.3
C[C@@H]1CN(c2ccc(Nc3cc(-c4ccnc(N5CCn6c(cc7c6CCCC7)C5=O)c4CO)cn(C)c3=O)nc2)[C@@H](C)CN1C1COC1 [Example 122, 2-(4-(5-(5-((2S,5R)-2,5-Dimethyl-4-(oxetan-3-yl)piperazin-1-yl)pyridin-2-ylamino)-1-methyl-6-oxo-1,6-dihydropyridin-3-yl)-3-(hydroxymethyl)pyridin-2-yl)-3,4,6,7,8,9-hexahydropyrazino[1,2-a]indol-1(2H)-one]	12.7
Cn1cc(-c2ccnc(N3CCn4c(cc5c4CCCC5)C3=O)c2CO)cc(Nc2ccc(N3CCN(CCO)CC3)cn2)c1=O [Example 123, 2-(4-(5-(5-(4-(2-Hydroxyethyl)piperazin-1-yl)pyridin-2-ylamino)-1-methyl-6-oxo-1,6-dihydropyridin-3-yl)-3-(hydroxymethyl)pyridin-2-yl)-3,4,6,7,8,9-hexahydro-pyrazino[1,2-a]indol-1(2H)-one]	33.1
Cn1cc(-c2ccnc(-n3ncc4c5c(sc4c3=O)CCCC5)c2CO)cc(Nc2ccc(N3CCN(C4COC4)CC3)cn2)c1=O [Example 124, 3-Hydroxymethyl-4-[1-methyl-5-(5-(4-(oxetan-3-yl)piperazin-1-yl)pyridine-2-ylamino)-6-oxo-1,6-dihydropyridin-3-yl]-2-{6-oxo-8-thia-4,5-diazatricyclo[7.4.0.0^2,7]trideca-1(9),2(7),3-trien-5-yl}pyridine]	36.2
Cn1cc(-c2ccnc(N3CCn4c(cc5c4CCCC5)C3=O)c2CO)cc(Nc2cc3n(n2)CCN(C2COC2)C3)c1=O [Example 125, 2-(3-(Hydroxymethyl)-4-(1-methyl-5-(5-(oxetan-3-yl)-4,5,6,7-tetrahydropyrazolo[1,5-a]pyrazin-2-ylamino)-6-oxo-1,6-dihydropyridin-3-yl)pyridin-2-yl)-3,4,6,7,8,9-hexahydropyrazino[1,2-a]indol-1(2H)-one]	87.3
Cn1cc(-c2cncc(-n3ccn4c5c(cc4c3=O)CCCC5)c2CO)cc(Nc2ccc(N3CCN(C4COC4)CC3)cn2)c1=O [Example 126, 2-(4-(Hydroxymethyl)-5-(1-methyl-5-(5-(4-(oxetan-3-yl)piperazin-1-yl)pyridin-2-ylamino)-6-oxo-1,6-dihydropyridin-3-yl)pyridin-3-yl)-6,7,8,9-tetrahydropyrazino[1,2-a]indol-1(2H)-one]	138
Cn1cc(-c2ccnc(N3CCn4c(cc5c4CCCC5)C3=O)c2CO)cc(Nc2ccc(N3CCNCC3)cn2)c1=O [Example 127, 2-(3-(Hydroxymethyl)-4-(1-methyl-6-oxo-5-(5-(piperazin-1-yl)pyridin-2-ylamino)-1,6-dihydropyridin-3-yl)pyridin-2-yl)-3,4,6,7,8,9-hexahydropyrazino[1,2-a]indol-1(2H)-one]	141
Cn1cc(-c2ccnc(N3CCn4c(cc5c4CCCC5)C3=O)c2CO)cc(Nc2cc3n(n2)CCN(C2CC2)C3)c1=O [Example 128, 2-(4-(5-(5-Cyclopropyl-4,5,6,7-tetrahydropyrazolo[1,5-a]pyrazin-2-ylamino)-1-methyl-6-oxo-1,6-dihydropyridin-3-yl)-3-(hydroxymethyl)pyridin-2-yl)-3,4,6,7,8,9-hexahydropyrazino[1,2-a]indol-1(2H)-one]	91.8
